GI50 and TGI data for 19 compounds are collected here from PubChem BioAssay (NCI).

Assay in all cases: NCI tumour cell line growth inhibition, 48 h
Experiment [1] deals with NCI/ADR-RES ovarian.
The test system of experiment [2] is BT-549 breast.
Experiment [3] deals with T-47D breast.
Experiment [4] relates to MCF7 breast.
For experiment [5], the system named is MDA-N.

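All cell lines were grown in 96-well plates and treated with compound for 48 hours. GI50 = concentration required for 50% inhibition of growth. Definition used: TGI = concentration required for complete inhibition of growth.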

In the case of `COc1ccc2c(c1)C(=O)c1c-2n(CCCN)c(=O)c2cc(OC)c(OC)cc12`, in experiment [1], the GI50 was 0.405 µM and the TGI was determined as 5.4 µM.
As to `CC1CCc2c(c(CC3CC(=O)NC(=O)C3)nn2-c2ccccc2)C1` (stereo not given), the TGI in experiment [2], in experiment [3], in experiment [4], in experiment [5] and in experiment [1] was > 100 µM each time.
Regarding `COc1ccc(-c2nc(-c3cnccn3)n(COCCO)n2)cc1`, the TGI in experiment [2], in experiment [3], in experiment [4], in experiment [5] and in experiment [1] was > 100 µM in each case.
Consider `COc1cc2ncn(-c3cc(OCc4ccccc4C(F)(F)F)c(C(C)=O)s3)c2cc1OC`, for which the GI50 in experiment [2], in experiment [3], in experiment [4] and in experiment [1] was > 25 µM throughout. Moreover, the TGI in experiment [2], in experiment [3], in experiment [4] and in experiment [1] was > 25 µM each time.
Take `CC1=NN(C(=O)c2ccncc2)C(=O)C1N=Nc1ccc2ccccc2c1` (stereo not given): the TGI in experiment [2] is > 100 µM; in experiment [3], > 100 µM; in experiment [4], > 100 µM; in experiment [5], 10.2 µM; in experiment [1], > 100 µM.
On to `CCOC(=O)c1cc(-c2ccc(OC)c(OC)c2)[nH]c1N/N=C/c1c(Cl)cccc1Cl`, for which the GI50 was 2.49 µM in experiment [2], 5.98 µM in experiment [3], 0.415 µM in experiment [4] and 1.15 µM in experiment [1]. The TGI in experiment [2] is 12.5 µM; in experiment [3], 55.4 µM; in experiment [4], 17.8 µM; in experiment [1], 4.53 µM.
For the compound `C=C1CCC2C3(C)COC(c4ccc(Cl)cc4)OC3CCC2(C)C1/C=C/C1=CCOC1=O` (stereo not given), the GI50 is 4.79 µM in experiment [2], 0.821 µM in experiment [3], 3.35 µM in experiment [4] and 4.98 µM in experiment [1]. Also, the TGI in experiment [2] is 80.5 µM; in experiment [3] it was 21.4 µM; in experiment [4], > 100 µM; in experiment [1], > 100 µM.
On to `COc1ccc(CNc2cnc3cc(N)cc(N)c3n2)cc1`, for which the GI50 in experiment [2] is 17.8 µM; in experiment [3], 73.8 µM; in experiment [4], 37.5 µM; in experiment [1], 25.5 µM. For the same compound, the TGI in experiment [2] was 37.5 µM; in experiment [3], > 100 µM; in experiment [4], > 100 µM; in experiment [1], 76.2 µM.
Regarding `CN1CCN(Cc2ccc(NC(=O)c3cncc(C#Cc4cnn5ccccc45)c3)cc2C(F)(F)F)CC1`, the GI50 is 1.47 µM in experiment [2], 1.4 µM in experiment [3], 0.408 µM in experiment [4] and 1.4 µM in experiment [1]. For the same compound, the TGI is 4.11 µM in experiment [2], 5.78 µM in experiment [3], 2.29 µM in experiment [4] and 5.51 µM in experiment [1].
For the compound `COC(=O)C1=C(O)[C@H](C(=O)OC)[C@]2(O)[C@@H](C(=O)OC)[C@H]1C[C@@H](c1ccc(OC(=O)/C=C/c3ccco3)cc1)[C@@H]2C(=O)OC`, the GI50 in experiment [2] was 22.5 µM; in experiment [3], > 100 µM; in experiment [4], 40.5 µM; in experiment [1], 12.3 µM. In addition, the TGI in experiment [2] is 49.4 µM; in experiment [3], > 100 µM; in experiment [4], > 100 µM; in experiment [1], 32.2 µM.
Regarding `CC(C)(C)c1ccc(O)c(CN(Cc2cc(C(C)(C)C)ccc2O)C2CCCCC2)c1`, the TGI in experiment [2] was determined as 46.5 µM; in experiment [3], 45 µM; in experiment [4], 35.5 µM; in experiment [5] it was 28.1 µM; in experiment [1], 42.1 µM.
As to `C1CCN2CC3CCCN4CCCC(C2C1)C34` (stereo not given), the TGI in experiment [2], in experiment [3], in experiment [4], in experiment [5] and in experiment [1] was > 100 µM each time.
In the case of `CO[C@@H]1[C@H]2[C@@H](C)c3ccoc3C[C@@H]2[C@@]2(C)CC[C@H](OC(=O)c3ccccc3)[C@](C)(C(=O)O)[C@]2(O)[C@@H]1OC(=O)c1ccccc1`, the GI50 in experiment [2] was 8.99 µM; in experiment [4], 17.4 µM; in experiment [1], 11.7 µM. The TGI in experiment [2] is 29.7 µM; in experiment [4], > 50 µM; in experiment [1], 35.3 µM.
`COC(=O)C(=O)C(C(=O)C(=O)Nc1ccc(C)cc1)c1nc2ccc(C(=O)c3ccccc3)cc2[nH]c1=O` (stereo not given): the TGI in experiment [2], in experiment [3], in experiment [5] and in experiment [1] was > 100 µM throughout.
For the compound `C/C=C(/C)C(=O)OC1C=C(CO)C(=O)C(OC(=O)C(C)(O)C(C)Cl)C1C(C)C` (stereo not given), the GI50 is 1.95 µM in experiment [2], 0.552 µM in experiment [4] and 2.31 µM in experiment [1]. Besides, the TGI is 4.71 µM in experiment [2], 3.09 µM in experiment [4] and 13.3 µM in experiment [1].
As for `CC(C)(C)NC/C(=C\c1ccccc1)C(=O)c1ccccc1`, the GI50 in experiment [2] was 2.03 µM; in experiment [3], 2.19 µM; in experiment [4], 1.08 µM; in experiment [1], 2.31 µM. Moreover, the TGI in experiment [2] worked out at 4.39 µM; in experiment [3], 8.98 µM; in experiment [4] it was 10.4 µM; in experiment [1] it was 10.8 µM.
Consider `O=S(=O)(Nc1ccc2ccccc2c1)c1ccc(-c2cnc(C3CC3)o2)cc1`, for which the GI50 was 2.81 µM in experiment [2], 1.01 µM in experiment [3], 0.478 µM in experiment [4] and 0.713 µM in experiment [1]. The TGI in experiment [2] was 19.3 µM; in experiment [3], 58.3 µM; in experiment [4], 25 µM; in experiment [1], 5.81 µM.
`O=C(Cn1c(C(=O)c2ccccc2)nc2ccccc21)c1ccc(F)cc1`: the GI50 in experiment [2] is 9.76 µM; in experiment [3], 3.38 µM; in experiment [4], 3.27 µM; in experiment [1], 3.47 µM. The TGI in experiment [2] was > 100 µM; in experiment [3], > 100 µM; in experiment [4], > 72 µM; in experiment [1], > 29.4 µM.
Consider `O=C1NC(S(=O)(=O)O)=NNC12c1ccccc1-c1ccccc12`, for which the TGI in experiment [2], in experiment [3], in experiment [4], in experiment [5] and in experiment [1] was > 10 µM throughout.
